Measurements taken from patent publication US20050112573A1, “Method of detecting toxic substance” (priority 2001, published 2005).

System: yeast genes (level of expressed mRNA)
Test: DNA chip analysis of expressed mRNA of yeast genes after 2 h culture with a toxic chemical substance
Format: cell-based, Saccharomyces cerevisiae S288C
Conditions: for The level of expressed mRNA in the presence of chemical substance/ (ratio to absence of chemical substance): stress protein genes, DNA chip; for The level of expressed mRNA in the presence of chemical substance/ in its absence, gene YPR184W: yeast gene YPR184W
Method: Yeast (Saccharomyces cerevtisiae S288C (α SUC2mal mel gap2 CUP1)) were cultured at 25° C. on YPD medium (yeast extract 1%, polypepton 2%, glucose 2%). One of toxic chemical substances was added to the cell at logarithmic growth phase, and the cell was further cultured for two hours. Cell was cultured without any chemical substance in the same condition, and was used as control. Concentrations of the chemical substances were defined to inhibit the growth of the yeast but not lead to death.
After the completion of cultivation, the culture was centrifuged to collect the cells. To the cells, sodium acetate buffer (50 mM sodium acetate, 10 mM EDTA, 1% SDS) was added, and the mixture was shaken at 65° C. for five minutes, followed by returning to room temperature, and obtaining the supernatant, which procedure was repeated two times. To the supernatant, ½ amount of a solution of phenol/chloroform was added, and the mixture was centrifuged to give a supernatant, which was added with an equal amount of chloroform, and the mixture was centrifuged to give a supernatant. To the supernatant, an equal amount of isopropanol containing 0.3 M sodium acetate was added, and the mixture was allowed to stand at room temperature for 30 minutes, after which the mixture was centrifuged to give a sediment of the whole RNAs. Seventy % ethanol was added to the sediment, and the mixture was again centrifuged to give a sediment, which was then dried and dissolved in water. mRNA was isolated from the whole RNAs as followings. In view of the fact that a poly A chain is attached to the 3′ terminus of mRNA, a polynucleotide having a poly T structure which was immobilized on the surface of latex beads was used to trap the mRNA, and then the mRNA was washed and eluted with spine column (Oligotex-dT30<Super>mRNA Purification Kit, Takara). Reverse transcription of the mRNA was conducted with a reverse transcriptase (Super Script II Reverse Transcriptase; catalogue No. 18064-014, GibcoBRL) using fluorescence-labeled nucleotides to give cDNAs that were introduced with Cy3-dUTP or Cy5-dUTP during the reverse transcription.
The labeled cDNAs were dissolved in TE buffer (10 mM Tris-HCl/1 mM EDTA, pH8.0), and the solution was dropped on the DNA chip containing the whole genes of yeast (DNA Chip Research Inc. Japan) so that the cDNAs were hybridized on the DNA chip at 65° C. for over 12 hours. The fluoresces intensity of the DNA chip was read with a scanner, and the ratio relative to the fluorescence intensity resulting from the absence of chemical substance was estimated as the following, which is shown in Tables 1 to 9: [formula]
In the Tables, “Intensity” indicated in the rightmost column is a value of the level of expressed mRNA of each gene in control cells as divided by the average level of the expressions of the whole genes.

`CCCCC[C@H](O)CC(=O)CCc1ccc(O)c(OC)c1` [(13), gingerol] was tested, and the “The level of expressed mRNA in the presence of chemical substance/The level of expressed mRNA in the absence of chemical substance” value (yeast gene YNL006W) was 2.3, the “The level of expressed mRNA in the presence of chemical substance/The level of expressed mRNA in the absence of chemical substance” value (yeast gene YNL007C) was 2.1 and the “The level of expressed mRNA in the presence of chemical substance/ (in its absence), gene YNL025C” value (yeast gene YNL025C, ratio of DNA chip fluorescence intensity to that without chemical substance) was 1.3. The “The level of expressed mRNA in the presence of chemical substance/ (ratio to absence of chemical substance)” value (yeast gene YNL064C) was 1.1, the “The level of expressed mRNA in the presence of chemical substance/ (ratio to absence), gene YNL073W” value (yeast gene YNL073W, mitochondria-located protein genes, 2 h culture with chemical) was 1.2 and the “The level of expressed mRNA in the presence of chemical substance/The level of expressed mRNA in the absence of chemical substance” value (yeast gene YNL093W) was 2.2. The “The level of expressed mRNA in the presence of chemical substance/ (in its absence), gene YNL192W” value (yeast gene YNL192W, ratio of DNA chip fluorescence intensity to that without chemical substance) was 2.7, the “The level of expressed mRNA in the presence of chemical substance/The level of expressed mRNA in the absence of chemical substance” value (yeast gene YNL333W) was 2.2 and the “The level of expressed mRNA in the presence of chemical substance/The level of expressed mRNA in the absence of chemical substance” value (yeast gene YNR010W) was 2.8. The “The level of expressed mRNA in the presence of chemical substance/The level of expressed mRNA in the absence of chemical substance” value (yeast gene YNR069C) was 3.4, the “The level of expressed mRNA in the presence of chemical substance/ (in its absence), gene YNR072W” value (yeast gene YNR072W, ratio of DNA chip fluorescence intensity to that without chemical substance) was 1.5 and the “The level of expressed mRNA in the presence of chemical substance/ (ratio to absence of chemical substance)” value (yeast gene YNR076W) was 0.9. For the same compound, the “The level of expressed mRNA in the presence of chemical substance/The level of expressed mRNA in the absence of chemical substance” value (yeast gene YOL013C) was 1.8, the “The level of expressed mRNA in the presence of chemical substance/ (ratio to absence), gene YOL096C” value (yeast gene YOL096C, mitochondria-located protein genes, 2 h culture with chemical) was 1.4 and the “The level of expressed mRNA in the presence of chemical substance/ (in its absence), gene YOL096C” value (yeast gene YOL096C, ratio of DNA chip fluorescence intensity to that without chemical substance) was 1.4. The “The level of expressed mRNA in the presence of chemical substance/ (in its absence), gene YOL108C” value (yeast gene YOL108C, ratio of DNA chip fluorescence intensity to that without chemical substance) was 1.3, the “The level of expressed mRNA in the presence of chemical substance/ (in its absence), gene YOL116W” value (yeast gene YOL116W, ratio of DNA chip fluorescence intensity to that without chemical substance) was 0.8 and the “The level of expressed mRNA in the presence of chemical substance/ (ratio to absence of chemical substance)” value (yeast gene YOL161C) was 1.2. The “The level of expressed mRNA in the presence of chemical substance/The level of expressed mRNA in the absence of chemical substance” value (yeast gene YOL164W) was 3.4, the “The level of expressed mRNA in the presence of chemical substance/ (ratio to absence of chemical substance)” value (yeast gene YOR008C) was 0.9 and the “The level of expressed mRNA in the presence of chemical substance/ (ratio to absence of chemical substance)” value (yeast gene YOR009W) was 0.4. For the same compound, the “The level of expressed mRNA in the presence of chemical substance/ (ratio to absence of chemical substance)” value (yeast gene YOR010C) was 0.5, the “The level of expressed mRNA in the presence of chemical substance/The level of expressed mRNA in the absence of chemical substance” value (yeast gene YOR036W) was 2.1 and the “The level of expressed mRNA in the presence of chemical substance/ (in its absence), gene YOR103C” value (yeast gene YOR103C, ratio of DNA chip fluorescence intensity to that without chemical substance) was 0.8. The “The level of expressed mRNA in the presence of chemical substance/The level of expressed mRNA in the absence of chemical substance” value (yeast gene YOR117W) was 2.3, the “The level of expressed mRNA in the presence of chemical substance/The level of expressed mRNA in the absence of chemical substance” value (yeast gene YOR124C) was 2.1 and the “The level of expressed mRNA in the presence of chemical substance/The level of expressed mRNA in the absence of chemical substance” value (yeast gene YOR132W) was 2.5. For the same compound, the “The level of expressed mRNA in the presence of chemical substance/The level of expressed mRNA in the absence of chemical substance” value (yeast gene YOR157C) was 2.4, the “The level of expressed mRNA in the presence of chemical substance/ (in its absence), gene YOR180C” value (yeast gene YOR180C, ratio of DNA chip fluorescence intensity to that without chemical substance) was 0.9 and the “The level of expressed mRNA in the presence of chemical substance/The level of expressed mRNA in the absence of chemical substance” value (yeast gene YOR181W) was 1.2. The “The level of expressed mRNA in the presence of chemical substance/The level of expressed mRNA in the absence of chemical substance” value (yeast gene YOR185C) was 2.2, the “The level of expressed mRNA in the presence of chemical substance/The level of expressed mRNA in the absence of chemical substance” value (yeast gene YOR198C) was 1.8 and the “The level of expressed mRNA in the presence of chemical substance/ (in its absence), gene YOR251C” value (yeast gene YOR251C, ratio of DNA chip fluorescence intensity to that without chemical substance) was 1.0. For the same compound, the “The level of expressed mRNA in the presence of chemical substance/The level of expressed mRNA in the absence of chemical substance” value (yeast gene YOR259C) was 1.8, the “The level of expressed mRNA in the presence of chemical substance/The level of expressed mRNA in the absence of chemical substance” value (yeast gene YOR261C) was 2.5 and the “The level of expressed mRNA in the presence of chemical substance/The level of expressed mRNA in the absence of chemical substance” value (yeast gene YOR288C) was 2.4. The “The level of expressed mRNA in the presence of chemical substance/ (ratio to absence), gene YOR316C” value (yeast gene YOR316C, mitochondria-located protein genes, 2 h culture with chemical) was 1.6, the “The level of expressed mRNA in the presence of chemical substance/ (in its absence), gene YOR348C” value (yeast gene YOR348C, ratio of DNA chip fluorescence intensity to that without chemical substance) was 1.1 and the “The level of expressed mRNA in the presence of chemical substance/The level of expressed mRNA in the absence of chemical substance” value (yeast gene YOR355W) was 1.1. The “The level of expressed mRNA in the presence of chemical substance/ (in its absence), gene YOR363C” value (yeast gene YOR363C, ratio of DNA chip fluorescence intensity to that without chemical substance) was 1.3, the “The level of expressed mRNA in the presence of chemical substance/The level of expressed mRNA in the absence of chemical substance” value (yeast gene YOR383C) was 1.2 and the “The level of expressed mRNA in the presence of chemical substance/ (ratio to absence), gene YPL040C” value (yeast gene YPL040C, mitochondria-located protein genes, 2 h culture with chemical) was 1.0. For the same compound, the “The level of expressed mRNA in the presence of chemical substance/ (ratio to absence of chemical substance)” value (yeast gene YPL059W) was 0.7, the “The level of expressed mRNA in the presence of chemical substance/The level of expressed mRNA in the absence of chemical substance” value (yeast gene YPL089C) was 1.3 and the “The level of expressed mRNA in the presence of chemical substance/The level of expressed mRNA in the absence of chemical substance” value (yeast gene YPL109C) was 1.8. For the same compound, the “The level of expressed mRNA in the presence of chemical substance/ (ratio to absence), gene YPL134C” value (yeast gene YPL134C, mitochondria-located protein genes, 2 h culture with chemical) was 1.0, the “The level of expressed mRNA in the presence of chemical substance/ (ratio to absence of chemical substance)” value (yeast gene YPL140C) was 0.9 and the “The level of expressed mRNA in the presence of chemical substance/ (in its absence), gene YPL148C” value (yeast gene YPL148C, ratio of DNA chip fluorescence intensity to that without chemical substance) was 0.6. The “The level of expressed mRNA in the presence of chemical substance/The level of expressed mRNA in the absence of chemical substance” value (yeast gene YPL149W) was 2.3, the “The level of expressed mRNA in the presence of chemical substance/The level of expressed mRNA in the absence of chemical substance” value (yeast gene YPL154C) was 3.1 and the “The level of expressed mRNA in the presence of chemical substance/ (ratio to absence of chemical substance)” value (yeast gene YPL194W) was 1.4. For the same compound, the “The level of expressed mRNA in the presence of chemical substance/ (ratio to absence of chemical substance)” value (yeast gene YPR005C) was 0.7, the “The level of expressed mRNA in the presence of chemical substance/The level of expressed mRNA in the absence of chemical substance” value (yeast gene YPR103W) was 2.8 and the “The level of expressed mRNA in the presence of chemical substance/The level of expressed mRNA in the absence of chemical substance” value (yeast gene YPR108W) was 2.6. The “The level of expressed mRNA in the presence of chemical substance/ (in its absence), gene YPR165W” value (yeast gene YPR165W, ratio of DNA chip fluorescence intensity to that without chemical substance) was 1.0, the “The level of expressed mRNA in the presence of chemical substance/ in its absence, gene YPR184W” value (energy system protein genes, 2 h culture with the chemical, ratio to control without chemical) was 2.5 and the “The level of expressed mRNA in the presence of chemical substance/ in its absence, gene YPR184W” value (ratio of DNA chip fluorescence intensity to that without chemical substance) was 2.5.
